Results from PubChem BioAssay AID256 (DTP/NCI, 2004).
Toxic doses and inconclusive results are not listed. How the source made its calls: active means survival T/C of 150% or more; inactive means T/C below 125% in these data.

Test system: CD2F1 mice, L1210 leukemia ip, survival T/C
Assay: NCI In Vivo Anticancer Drug Screen. Data for tumor model L1210 Leukemia (intraperitoneal) in CD2F1 (CDF1) mice
Settings: higher = longer survival
In short: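 Compound-dosed mice with transplantable tumor versus matched vehicle controls; endpoint ratio T/C reported.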

[1] = endpoint: mean survival time, dose: 100.0 mg/kg/injection, schedule: Q04DX003 (ip), vehicle: saline
[2] = endpoint: mean survival time, dose: 200.0 mg/kg/injection, schedule: Q04DX003 (ip), vehicle: saline
[3] = endpoint: mean survival time, dose: 400.0 mg/kg/injection, schedule: Q04DX003 (ip), vehicle: saline
[4] = endpoint: mean survival time, dose: 100.0 mg/kg/injection, schedule: Q04DX003 (ip), vehicle: saline with Tween-80
[5] = endpoint: mean survival time, dose: 200.0 mg/kg/injection, schedule: Q04DX003 (ip), vehicle: saline with Tween-80
[6] = endpoint: mean survival time, dose: 400.0 mg/kg/injection, schedule: Q04DX003 (ip), vehicle: saline with Tween-80
[7] = endpoint: mean survival time, dose: 200.0 mg/kg/injection, schedule: Q01DX009 (ip), vehicle: saline with Tween-80
[8] = endpoint: mean survival time, dose: 50.0 mg/kg/injection, schedule: Q01DX009 (ip), vehicle: saline with Tween-80
[9] = endpoint: mean survival time, dose: 100.0 mg/kg/injection, schedule: Q01DX009 (ip), vehicle: saline with Tween-80
[10] = endpoint: mean survival time, dose: 50.0 mg/kg/injection, schedule: Q01DX009 (ip), vehicle: Klucel (hydroxypropylcellulose) (HPC)
[11] = endpoint: mean survival time, dose: 100.0 mg/kg/injection, schedule: Q01DX009 (ip), vehicle: Klucel (hydroxypropylcellulose) (HPC)
[12] = endpoint: mean survival time, dose: 50.0 mg/kg/injection, schedule: Q04DX003 (ip), vehicle: saline with Tween-80
[13] = endpoint: mean survival time, dose: 100.0 mg/kg/injection, schedule: Q04DX002 (ip), vehicle: saline with Tween-80
[14] = endpoint: mean survival time, dose: 200.0 mg/kg/injection, schedule: Q04DX002 (ip), vehicle: saline with Tween-80
[15] = endpoint: mean survival time, dose: 100.0 mg/kg/injection, schedule: Q01DX001 (ip), vehicle: saline
[16] = endpoint: mean survival time, dose: 200.0 mg/kg/injection, schedule: Q01DX001 (ip), vehicle: saline
[17] = endpoint: mean survival time, dose: 400.0 mg/kg/injection, schedule: Q04DX002 (ip), vehicle: saline with Tween-80
[18] = endpoint: mean survival time, dose: 400.0 mg/kg/injection, schedule: Q01DX009 (ip), vehicle: saline with Tween-80

Measured: T/C

O=C(/C=C\c1ccc(O)c(O)c1)OC1C(O)CC(OC(=O)/C=C/c2ccc(O)c(O)c2)(C(=O)O)CC1O (configuration not stated)
inactive: [1] 98 % of control | [2] 96 % of control | [3] 95 % of control

Cc1ccc(N2CC=C(c3ccccc3)OP2(=O)N(CCCl)CCCl)cc1 (configuration not stated)
inactive: endpoint: mean survival time, dose: 31.25 mg/kg/injection, schedule: Q01DX001 (ip), vehicle: saline 100 % of control | endpoint: mean survival time, dose: 62.5 mg/kg/injection, schedule: Q01DX001 (ip), vehicle: saline 102 % of control | endpoint: mean survival time, dose: 125.0 mg/kg/injection, schedule: Q01DX001 (ip), vehicle: saline 100 % of control | endpoint: mean survival time, dose: 250.0 mg/kg/injection, schedule: Q01DX001 (ip), vehicle: saline 100 % of control | endpoint: mean survival time, dose: 500.0 mg/kg/injection, schedule: Q01DX001 (ip), vehicle: saline 100 % of control

O=c1[nH]c2ccccc2[nH]1
inactive: [4] 100 % of control | [5] 95 % of control | [6] 103 % of control

CCCCCCCCCCCCCCCC(=O)N(CCC#N)CCC#N
inactive: [4] 93 % of control | [7] 97 % of control | [5] 96 % of control | [6] 109 % of control

CC(=O)Nc1ccc(C)cc1C
inactive: endpoint: mean survival time, dose: 100.0 mg/kg/injection, schedule: Q04DX003 (ip), vehicle: Klucel (hydroxypropylcellulose) (HPC) 94 % of control | endpoint: mean survival time, dose: 200.0 mg/kg/injection, schedule: Q04DX003 (ip), vehicle: Klucel (hydroxypropylcellulose) (HPC) 103 % of control | endpoint: mean survival time, dose: 400.0 mg/kg/injection, schedule: Q04DX003 (ip), vehicle: Klucel (hydroxypropylcellulose) (HPC) 97 % of control

COc1ccc(/C=C(/C#N)c2ccccc2)cc1
inactive: [4] 95 % of control | [5] 93 % of control | [6] 90 % of control

C[n+]1ccc(/C=C\Nc2ccccn2)cc1
inactive: endpoint: mean survival time, dose: 75.0 mg/kg/injection, schedule: Q01DX001 (ip), vehicle: saline 103 % of control | endpoint: mean survival time, dose: 150.0 mg/kg/injection, schedule: Q01DX001 (ip), vehicle: saline 108 % of control

C/C=C/COC1CCS(=O)(=O)C1 (configuration not stated)
inactive: [8] 104 % of control | [9] 97 % of control | [7] 97 % of control

Cc1cccc(/C(=C\c2ccc([N+](=O)[O-])cc2)C(=O)Nc2ccc(S(=O)(=O)F)c(C)c2)c1
inactive: [10] 91 % of control | [11] 94 % of control | endpoint: mean survival time, dose: 200.0 mg/kg/injection, schedule: Q01DX009 (ip), vehicle: Klucel (hydroxypropylcellulose) (HPC) 112 % of control

CC(O)CN1CCN(CC(C)O)CC1.[Cl][Pt+2][Cl] (configuration not stated)
inactive: endpoint: mean survival time, dose: 3.13 mg/kg/injection, schedule: Q04DX003 (ip), vehicle: saline with Tween-80 105 % of control | endpoint: mean survival time, dose: 6.25 mg/kg/injection, schedule: Q04DX003 (ip), vehicle: saline with Tween-80 102 % of control | endpoint: mean survival time, dose: 12.5 mg/kg/injection, schedule: Q04DX003 (ip), vehicle: saline with Tween-80 105 % of control | endpoint: mean survival time, dose: 25.0 mg/kg/injection, schedule: Q04DX003 (ip), vehicle: saline with Tween-80 102 % of control | [12] 97 % of control

O=C(C#Cc1ccccc1)N1CCCCC1
inactive: endpoint: mean survival time, dose: 25.0 mg/kg/injection, schedule: Q04DX002 (ip), vehicle: saline with Tween-80 99 % of control | endpoint: mean survival time, dose: 50.0 mg/kg/injection, schedule: Q04DX002 (ip), vehicle: saline with Tween-80 99 % of control | [13] 101 % of control | [14] 92 % of control

CCc1c(C)[nH]c2ccc([N+](=O)[O-])cc12
inactive: [8] 103 % of control | [9] 94 % of control | [4] 100 % of control | [7] 97 % of control | [5] 93 % of control

Nc1ncnc2c1ncn2C1OC(CF)C(O)C1O (configuration not stated)
inactive: [15] 104 % of control | [16] 98 % of control

O=C(CC(O)(C(F)(F)F)C(F)(F)F)c1ccc(C(=O)CC(O)(C(F)(F)F)C(F)(F)F)cc1
inactive: endpoint: mean survival time, dose: 12.5 mg/kg/injection, schedule: Q01DX009 (ip), vehicle: other 105 % of control | endpoint: mean survival time, dose: 25.0 mg/kg/injection, schedule: Q01DX009 (ip), vehicle: other 105 % of control | endpoint: mean survival time, dose: 50.0 mg/kg/injection, schedule: Q01DX009 (ip), vehicle: other 113 % of control | endpoint: mean survival time, dose: 100.0 mg/kg/injection, schedule: Q04DX003 (ip), vehicle: other 113 % of control | endpoint: mean survival time, dose: 200.0 mg/kg/injection, schedule: Q04DX003 (ip), vehicle: other 105 % of control

NCC(=O)Nc1ccc(O)cc1
inactive: endpoint: mean survival time, dose: 180.0 mg/kg/injection, schedule: Q04DX003 (ip), vehicle: saline 104 % of control | endpoint: mean survival time, dose: 405.0 mg/kg/injection, schedule: Q04DX003 (ip), vehicle: saline 98 % of control

COC(=O)C1CCCCC1C(=O)OC (configuration not stated)
inactive: [13] 97 % of control | [4] 104 % of control | [14] 97 % of control | [5] 98 % of control | [17] 101 % of control

O=C(/C=C/c1ccc(Cl)cc1)c1ccc(Cl)cc1
inactive: [4] 98 % of control | [5] 90 % of control | [6] 93 % of control

CCCCCCCCCSc1nc2ccccc2s1
inactive: [13] 87 % of control | [14] 97 % of control | [17] 93 % of control

CCCCN(C)CCNc1cc(C)nc(/N=C(\N)Nc2ccc(Cl)c(Cl)c2)n1
inactive: endpoint: mean survival time, dose: 75.0 mg/kg/injection, schedule: Q01DX001 (ip), vehicle: other 97 % of control

NNC(=O)OCc1ccccc1
inactive: [13] 100 % of control

O=C1N(Cc2ccccc2)CC2C(c3ccccc3)NNC12O (configuration not stated)
inactive: [4] 89 % of control | [6] 101 % of control

C[C@]12CCC(=O)C=C1CC[C@H]1[C@@H]3CC[C@](O)(C(=O)CF)[C@@]3(C)C[C@H](O)[C@@]12F
inactive: endpoint: mean survival time, dose: 50.0 mg/kg/injection, schedule: Q01DX001 (sc), vehicle: saline sonified 103 % of control | endpoint: mean survival time, dose: 50.0 mg/kg/injection, schedule: Q04DX003 (sc), vehicle: Klucel (hydroxypropylcellulose) (HPC) 104 % of control | endpoint: mean survival time, dose: 100.0 mg/kg/injection, schedule: Q01DX001 (sc), vehicle: saline sonified 101 % of control | endpoint: mean survival time, dose: 100.0 mg/kg/injection, schedule: Q04DX003 (sc), vehicle: Klucel (hydroxypropylcellulose) (HPC) 102 % of control | endpoint: mean survival time, dose: 200.0 mg/kg/injection, schedule: Q01DX001 (sc), vehicle: saline sonified 103 % of control | endpoint: mean survival time, dose: 200.0 mg/kg/injection, schedule: Q04DX003 (sc), vehicle: Klucel (hydroxypropylcellulose) (HPC) 104 % of control

CCN(Cc1ccc(Cl)c(Cl)c1)c1ccc2nc(N)nc(N)c2c1C
inactive: endpoint: mean survival time, dose: 1.5 mg/kg/injection, schedule: Q01DX009 (ip), vehicle: water 97 % of control | endpoint: mean survival time, dose: 3.0 mg/kg/injection, schedule: Q01DX009 (ip), vehicle: water 106 % of control | endpoint: mean survival time, dose: 24.0 mg/kg/injection, schedule: Q01DX009 (ip), vehicle: water 101 % of control | endpoint: median survival time, dose: 1.5 mg/kg/injection, schedule: Q01DX009 (ip), vehicle: water 103 % of control | endpoint: median survival time, dose: 3.0 mg/kg/injection, schedule: Q01DX009 (ip), vehicle: water 111 % of control | endpoint: median survival time, dose: 6.0 mg/kg/injection, schedule: Q01DX009 (ip), vehicle: water 112 % of control

O=c1[nH]c(-c2ccccc2)nc(-c2ccc(Cl)cc2)c1CCO
inactive: [9] 95 % of control | [7] 91 % of control | [5] 91 % of control | [18] 96 % of control | [6] 86 % of control

CC(=O)c1c(O)c(C)c(O)c2c1OC1=CC(=O)C(C(C)=O)C(=O)C12C (configuration not stated)
inactive: endpoint: mean survival time, dose: 25.0 mg/kg/injection, schedule: Q01DX009 (ip), vehicle: Klucel (hydroxypropylcellulose) (HPC) 93 % of control | [10] 93 % of control | [11] 96 % of control

O=C(O)C(O)C(O)C(O)C(O)CO.[Mn] (configuration not stated)
inactive: [8] 106 % of control | [12] 100 % of control | [9] 107 % of control | [4] 102 % of control | [7] 118 % of control | [5] 104 % of control

O=C1C=C(S(=O)(=O)O)c2ccccc2C1=O
inactive: [1] 105 % of control | [2] 103 % of control | [3] 108 % of control

O=C1c2ccccc2C(=O)c2c(Sc3ccccc3)cccc21
inactive: [9] 97 % of control | [7] 93 % of control | [18] 92 % of control

O=C(Nc1cc(Cl)cc(Cl)c1)C(F)(F)F
inactive: [15] 107 % of control | [16] 101 % of control | endpoint: mean survival time, dose: 400.0 mg/kg/injection, schedule: Q01DX001 (ip), vehicle: saline 101 % of control

CN(C)OC(=O)Nc1ccc([N+](=O)[O-])cc1
inactive: [13] 97 % of control | [14] 112 % of control | [17] 108 % of control

CC(=O)NC(=O)CC(O)(c1ccccc1)c1ccccc1
inactive: endpoint: mean survival time, dose: 200.0 mg/kg/injection, schedule: Q01DX001 (ip), vehicle: saline with Tween-80 91 % of control | endpoint: mean survival time, dose: 400.0 mg/kg/injection, schedule: Q01DX001 (ip), vehicle: saline with Tween-80 88 % of control
